In test [1] the target is 72 kDa type IV collagenase (Homo sapiens, UniProt P08253). Description: Binding affinity to MMP2.
Test [2] has as its target Macrophage metalloelastase (Homo sapiens, UniProt P39900). Description: Binding affinity to MMP12.
Another test has as its target T1, Interstitial collagenase (Homo sapiens, UniProt P03956).
T1 sequence (P03956 whole entry): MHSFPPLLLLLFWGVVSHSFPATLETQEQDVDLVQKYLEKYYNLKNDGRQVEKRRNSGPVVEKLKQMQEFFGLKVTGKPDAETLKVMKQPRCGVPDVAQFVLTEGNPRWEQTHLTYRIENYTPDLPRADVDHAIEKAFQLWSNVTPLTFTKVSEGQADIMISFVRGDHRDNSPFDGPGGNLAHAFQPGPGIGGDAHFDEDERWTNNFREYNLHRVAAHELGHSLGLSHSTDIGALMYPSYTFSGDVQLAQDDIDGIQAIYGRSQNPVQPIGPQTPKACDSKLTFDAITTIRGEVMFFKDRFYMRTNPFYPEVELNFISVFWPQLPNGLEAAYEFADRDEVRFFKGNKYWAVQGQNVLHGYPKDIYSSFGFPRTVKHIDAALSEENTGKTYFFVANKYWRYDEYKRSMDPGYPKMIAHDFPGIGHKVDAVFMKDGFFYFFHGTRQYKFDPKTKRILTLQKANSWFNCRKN
Description: Binding affinity to MMP1.

Test [3] deals with Matrix metalloproteinase-9 (Homo sapiens, UniProt P14780). Description: Binding affinity to MMP9.
Chain of Matrix metalloproteinase-9 (P14780 whole entry): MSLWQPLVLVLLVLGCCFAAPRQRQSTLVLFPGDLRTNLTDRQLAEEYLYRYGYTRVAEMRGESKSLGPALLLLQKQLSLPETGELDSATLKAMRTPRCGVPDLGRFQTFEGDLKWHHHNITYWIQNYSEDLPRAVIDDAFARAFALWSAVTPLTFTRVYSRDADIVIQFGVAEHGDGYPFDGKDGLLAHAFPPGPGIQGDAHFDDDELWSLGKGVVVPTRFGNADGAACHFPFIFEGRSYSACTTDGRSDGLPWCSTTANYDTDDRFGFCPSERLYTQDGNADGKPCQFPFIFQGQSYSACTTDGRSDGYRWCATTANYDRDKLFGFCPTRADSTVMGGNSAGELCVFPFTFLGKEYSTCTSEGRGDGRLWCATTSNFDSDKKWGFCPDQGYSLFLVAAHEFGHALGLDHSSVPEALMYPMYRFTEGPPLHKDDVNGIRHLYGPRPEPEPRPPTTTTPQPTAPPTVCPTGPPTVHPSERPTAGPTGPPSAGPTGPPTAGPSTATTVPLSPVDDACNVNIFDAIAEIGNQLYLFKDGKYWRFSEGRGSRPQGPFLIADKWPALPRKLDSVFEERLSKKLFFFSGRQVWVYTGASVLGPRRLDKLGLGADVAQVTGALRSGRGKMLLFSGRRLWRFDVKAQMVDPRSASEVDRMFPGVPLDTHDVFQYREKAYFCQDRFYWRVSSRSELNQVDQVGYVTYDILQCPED
The target of a further test is Stromelysin-1 (Homo sapiens, UniProt P08254). Description: Binding affinity to MMP3.
Chain of Stromelysin-1 (P08254 whole entry): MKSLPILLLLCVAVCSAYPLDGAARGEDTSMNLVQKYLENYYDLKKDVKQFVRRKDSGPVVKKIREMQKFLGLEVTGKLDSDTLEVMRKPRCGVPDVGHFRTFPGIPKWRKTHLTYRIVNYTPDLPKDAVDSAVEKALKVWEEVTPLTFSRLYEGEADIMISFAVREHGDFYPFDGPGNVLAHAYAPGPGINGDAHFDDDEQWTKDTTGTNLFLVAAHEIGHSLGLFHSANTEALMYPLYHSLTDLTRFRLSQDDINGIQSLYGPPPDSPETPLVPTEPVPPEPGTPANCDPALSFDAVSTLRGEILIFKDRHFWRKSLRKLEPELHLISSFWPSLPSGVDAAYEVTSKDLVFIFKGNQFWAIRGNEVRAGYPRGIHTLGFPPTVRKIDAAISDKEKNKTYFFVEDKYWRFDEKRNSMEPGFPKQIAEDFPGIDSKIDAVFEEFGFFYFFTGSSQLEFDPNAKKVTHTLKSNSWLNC
A further test addresses T2, Matrilysin (Homo sapiens, UniProt P09237).
T2 sequence (P09237 whole entry): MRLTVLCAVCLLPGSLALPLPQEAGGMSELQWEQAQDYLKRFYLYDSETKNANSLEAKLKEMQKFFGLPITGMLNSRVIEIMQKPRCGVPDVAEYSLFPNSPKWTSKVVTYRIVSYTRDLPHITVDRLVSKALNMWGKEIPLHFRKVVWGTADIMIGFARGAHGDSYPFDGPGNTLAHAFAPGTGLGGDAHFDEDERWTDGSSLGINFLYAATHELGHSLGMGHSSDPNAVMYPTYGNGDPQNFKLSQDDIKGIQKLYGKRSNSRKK
Description: Binding affinity to MMP7.

The target of the next test is Collagenase 3 (Homo sapiens, UniProt P45452). Description: Binding affinity to MMP13.

Chain of Macrophage metalloelastase (P39900 whole entry): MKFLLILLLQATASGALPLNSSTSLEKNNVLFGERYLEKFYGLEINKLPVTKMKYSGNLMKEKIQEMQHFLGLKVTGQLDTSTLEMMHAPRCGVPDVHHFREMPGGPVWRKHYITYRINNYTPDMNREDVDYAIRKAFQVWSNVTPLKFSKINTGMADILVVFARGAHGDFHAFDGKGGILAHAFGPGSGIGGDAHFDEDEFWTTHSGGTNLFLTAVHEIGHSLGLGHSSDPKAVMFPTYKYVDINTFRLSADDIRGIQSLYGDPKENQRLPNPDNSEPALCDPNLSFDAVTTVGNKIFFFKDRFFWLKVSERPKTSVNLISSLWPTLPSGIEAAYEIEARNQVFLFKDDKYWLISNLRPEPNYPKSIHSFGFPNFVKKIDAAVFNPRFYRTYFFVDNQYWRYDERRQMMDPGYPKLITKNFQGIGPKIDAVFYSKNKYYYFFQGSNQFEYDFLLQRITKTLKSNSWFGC
Chain of 72 kDa type IV collagenase (P08253 whole entry): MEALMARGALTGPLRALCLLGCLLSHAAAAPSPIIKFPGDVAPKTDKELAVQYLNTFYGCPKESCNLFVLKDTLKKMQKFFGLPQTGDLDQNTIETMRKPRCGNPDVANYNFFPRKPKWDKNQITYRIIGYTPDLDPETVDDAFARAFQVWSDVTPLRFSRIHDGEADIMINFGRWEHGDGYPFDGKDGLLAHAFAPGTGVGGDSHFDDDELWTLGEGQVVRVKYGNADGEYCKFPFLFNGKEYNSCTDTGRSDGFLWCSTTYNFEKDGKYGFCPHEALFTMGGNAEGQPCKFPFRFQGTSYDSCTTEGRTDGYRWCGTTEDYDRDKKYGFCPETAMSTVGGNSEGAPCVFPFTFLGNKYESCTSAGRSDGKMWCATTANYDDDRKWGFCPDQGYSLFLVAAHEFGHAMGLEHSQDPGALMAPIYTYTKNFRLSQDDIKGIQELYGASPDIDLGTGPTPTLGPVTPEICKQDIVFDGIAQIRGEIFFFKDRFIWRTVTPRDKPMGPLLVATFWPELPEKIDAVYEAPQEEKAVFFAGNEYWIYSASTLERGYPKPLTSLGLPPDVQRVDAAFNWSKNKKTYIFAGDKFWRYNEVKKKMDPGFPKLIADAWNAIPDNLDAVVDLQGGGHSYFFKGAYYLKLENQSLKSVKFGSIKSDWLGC

As for `Cc1cc(COc2ccc(S(=O)(=O)NCC3(C)NC(=O)NC3=O)cc2)c2ccccc2n1` (stereo unspecified), the Ki (as a rule, a measure of affinity in units of concentration, obtained from inhibition or displacement) was over 3.33 µM in test [1], over 5.03 µM in test [2], over 4.95 µM on Interstitial collagenase and over 2.13 µM in test [3].
Turning to `Cc1cc(COc2ccc(C(=O)Nc3ccccc3Cc3c[nH]c(=O)[nH]3)cc2)c2ccccc2n1`, the Ki in test [1] was over 3.33 µM; on Stromelysin-1, over 4.5 µM; on Matrilysin it was over 6.37 µM; in test [2], over 6.02 µM; at Collagenase 3 it was over 5.03 µM.
The like results for `Cc1cc(COc2ccc(C(=O)Nc3ccccc3C(=O)c3c[nH]c(=O)[nH]3)cc2)c2ccccc2n1` were, in that order, over 3.33 µM, over 4.5 µM, over 6.37 µM, over 6.02 µM and 4.31 µM.
`Cc1cc(COc2ccc(C(=O)N[C@H]3CN(C(=O)OC(C)(C)C)C[C@@H]3c3n[nH]c(=O)[nH]3)cc2)c2ccccc2n1`: the Ki was over 3.33 µM in test [1], over 5.03 µM in test [2], over 4.95 µM at Interstitial collagenase and over 2.13 µM in test [3].
On the same counts, the results for `Cc1cc(COc2ccc(C(=O)NCC3(C)NC(=O)NC3=O)cc2)c2ccccc2n1` (stereo unspecified) are over 3.33 µM, over 5.03 µM, over 4.95 µM and over 2.13 µM.
On the same counts, the results for `Cc1cc(COc2ccc(C(=O)NCc3n[nH]c(=O)[nH]3)cc2)c2ccccc2n1` are over 3.33 µM, over 5.03 µM, over 4.95 µM and over 2.13 µM.
Regarding `Cc1cc(COc2ccc(C(=O)Nc3ccccc3Cc3n[nH]c(=O)[nH]3)cc2)c2ccccc2n1`, the Ki in test [1] is over 3.33 µM; at Stromelysin-1, over 4.5 µM; at Matrilysin it was over 6.37 µM; in test [2], 3.61 µM; on Collagenase 3, 4.31 µM.
Turning to `Cc1cc(COc2ccc(C(=O)Nc3ccccc3C3NC(=O)NC3=O)cc2)c2ccccc2n1` (stereo unspecified), the Ki in test [1] is over 3.33 µM; on Stromelysin-1, over 4.5 µM; on Matrilysin it was over 6.37 µM; in test [2], 0.782 µM; on Collagenase 3, over 5.03 µM.
Take `Cc1cc(COc2ccc(S(=O)(=O)NCc3n[nH]c(=O)[nH]3)cc2)c2ccccc2n1`: the Ki in test [1] is 2.47 µM; on Stromelysin-1 it was 0.567 µM; at Matrilysin, 1 µM; in test [2], 4.12 µM; at Collagenase 3 it was over 5.03 µM.

These data come from ChEMBL document CHEMBL1144638, “Hydantoins, triazolones, and imidazolones as selective non-hydroxamate inhibitors of tumor necrosis factor-alpha converting enzyme (TACE)” (Bioorg Med Chem Lett, 2007).
